Where two headings read alike, the source gives them in different places.
Experiments:
Assay type in all cases: cell-based
U2OS cells = assay: Transmission electron microscopy of lysosomal vesicles; settings: 3 μM for 3 hours, FIG. 12B
Method: U2OS cells were seeded in 10 cm plates in 5A McCoy's with 10% FBS at 1×10^6 cells per plate. After 24 hours incubation, cells were treated with DMSO (vehicle control), CQ (3 or 100 μM), quinicrine (3 μM), VATG-027 (3 μM), or VATG-032 (3 μM) for three hours. Following, cells were trypsinized, washed, pelleted, and resuspended in 2% glutaraldehyde fixative (Sigma, G5882). Cell pellets were embedded in 2% agarose, post-fixed in osmium tetroxide, and dehydrated with an acetone series. Cell samples were infiltrated and embedded in Poly/Bed 812 resin and polymerized at 60° C. for 24 hours. Ultrathin sections of 70 nm were generated with a Power Tome XL (Boeckeler Instruments) and placed on copper grids. Sections were examined using a JEOL 100Cx Transmission Electron Microscope at 100 kV. Lysosomal structures were identified by a single membrane structure lacking cytosolic components (FIG. 12). Transmission electron microscopy services were performed by Michigan State University Center for Advanced Microscopy (East Lansing, Mich.).
To test the theory, lysosomal turnover was first evaluated by visualizing lysosomes using transmission electron microscopy (TEM). U2OS cells were initially treated with a CQ concentration above the effective dose (100 μM) for 3 hours as a positive control, and were then subsequently fixed and imaged. […] Once this phenotype was established, cells were treated with a lower concentration (3 μM) of CQ to compare each compound at the same concentration.

[1] = system: UACC-91 melanoma cell line; assay: Cell viability (IC50) screen, CellTiter Glo, UACC-91; settings: Homo sapiens
Method: (§1) U2OS cells were seeded at 500 cells per well in 5A McCoy's with 10% FBS in 96-well clear bottom, black-walled tissue culture plates. All melanoma cell lines (A375, UACC-91, UACC-257, UACC-502, UACC-903, UACC-1308, UACC-1940, UACC-2534, and UACC-3291) were seeded at 5,000 cells per well in RPMI 1640 with 10% FBS in 96-well clear bottom, black-walled tissue culture plates. After 24 hour incubation, cells were treated with VATG compounds in triplicate with a 10-point half log dose response from […] for 24 and 48 hours. Medium was removed and 2× CellTiter Glo (Promega, G7571) reagent mixed 1:1 with Opti-MEM (Invitrogen, 31985062) was added at 100 μL per well and incubated at room temperature for 15 minutes while rocking. 75 μL per well was moved to a white-walled 96-well plate and luminescence quantified using the 96 LUM program on an EnVision plate reader (PerkinElmer) and exported for analysis. All triplicate data points were averaged and luminescent readings for each treatment were normalized to vehicle control for change in viability. Dose response curves were input into SigmaPlot for IC50 calculations (Systat Software Inc).

[2] = system: UACC-3291 melanoma cell line; assay: Cell viability (IC50) screen, CellTiter Glo, UACC-3291; settings: Homo sapiens
Method: as §1

[3] = system: UACC-1940 melanoma cell line; assay: Cell viability (IC50) screen, CellTiter Glo, UACC-1940; settings: Homo sapiens
Method: as §1

[4] = system: lysosomal protease cathepsin B in U2OS cells; assay: Immunoblot of active cathepsin B; settings: 3 μM and 30 μM for 6 hours; effects stated at 30 μM (CQ: at either dose)
Method: For Western blotting, U2OS cells were seeded in 10 cm plates in 5A McCoy's with 10% FBS at 1×10^6 cells per plate. All melanoma lines were seeded in 10 cm plates in RPMI 1640 with 10% FBS at 1×10^6 cells per plate. After 24 hours, cells were treated with CQ, QN, Example 27, or Example 7 in a dose response of 0.3 μM, 1 μM, 3 μM, 10 μM, and 30 μM for three hours. A375 were treated with PLX-4032 (Selleck Chemicals, S1267) at 10 nM, 100 nM, and 1 μM for three hours with and without CQ, QN, Example 7, and Example 27 at 3 μM and 30 μM. After treatment, cells were lysed [10 mM KPO4, 1 mM EDTA, 10 mM MgCl2, 5 mM EGTA, 50 mM bis-glycerophosphate, 0.5% NP40, 0.1% Brij35, 0.1% sodium deoxycholate, 1 mM NaVO4, 5 mM NaF, 2 mM DTT, and complete protease inhibitors (Sigma, P8340-5 mL)] and 50 μg of protein was resolved by SDS-PAGE. Proteins were transferred to PVDF membranes and probed with primary antibodies [LC3 (Sigma, L7543-200UL), anti-α-tubulin (Sigma, T6199), cathepsin B (Santa Cruz, sc-13985)] for 16 hours at 4° C. followed by a secondary antibody [HRP-linked rabbit or mouse IgG (GE Healthcare, NA934 or NA931) or Odyssey IRDye 680CW Goat anti-rabbit IgG (LI-COR, 926-32221) or IRDye 800CW Goat anti-mouse IgG (LI-COR, 926-32210)] for 1 hour at room temperature. Proteins were detected with enhanced chemiluminescence or using the Odyssey machine and quantified (FIGS. 12, 15, 16, 7 and 11).
Deacidification of lysosomes would be expected to not only prevent the maturation and turnover of the lysosomes from early to late, but also affect the functionality of lysosomal enzymes and consequently the turnover of lysosomal constituents. To determine if lysosomal activity was inhibited, lysosomal protease cathepsin B activity was measured by immunoblotting (FIG. 12C). Lysates were harvested from cells and treated with CQ, QN, Example 7, and Example 27 at both 3 μM and 30 μM for 6 hours.

[5] = system: UACC-1308 melanoma cell line; assay: Cell viability (IC50) screen, CellTiter Glo, UACC-1308; settings: Homo sapiens
Method: as §1

A375 melanoma cell line = assay: Cell viability (IC50) screen, CellTiter Glo, A375; settings: Homo sapiens
Method: as §1

[6] = system: UACC-2534 melanoma cell line; assay: Cell viability (IC50) screen, CellTiter Glo, UACC-2534; settings: Homo sapiens
Method: as §1

[7] = system: nine melanoma cell lines (A375, UACC-91, UACC-257, UACC-502, UACC-903, UACC-1308, UACC-1940, UACC-2534, UACC-3291); assay: Cell viability (IC50) screen, panel of nine melanoma cell lines; settings: Homo sapiens, read-out: IC50 values, range over the melanoma cell lines
Method: as §1
Next, the sensitivity of each melanoma cell line to CQ, QN, Example 7, and Example 27 was assessed.

[8] = system: UACC-502 melanoma cell line; assay: Cell viability (IC50) screen, CellTiter Glo, UACC-502; settings: Homo sapiens
Method: as §1

[9] = UACC-91 cell viability, CellTiter Glo, read-out: IC50
[10] = UACC-3291 cell viability, CellTiter Glo, read-out: IC50
[11] = UACC-1940 cell viability, CellTiter Glo, read-out: IC50
[12] = UACC-1308 cell viability, CellTiter Glo, read-out: IC50
[13] = A-375, A375 cell viability, CellTiter Glo, 48 hours, read-out: IC50
[14] = UACC-2534 cell viability, CellTiter Glo, read-out: IC50
[15] = cell viability, nine melanoma cell lines
[16] = UACC-502 cell viability, CellTiter Glo, read-out: IC50

| SMILES | electron-opaque structures, consistent with lipid droplets (TEM) (U2OS cells) | size and number of electron-lucent and electron-dense vesicles (TEM) (U2OS cells) | IC50 [1, 9] [µM] | IC50 [2, 10] [µM] | IC50 [3, 11] [µM] | active cathepsin B [4] | IC50 [5, 12] [µM] | IC50 (A375 melanoma cell line; [13]) [µM] | IC50 [6, 14] [µM] | IC50 [7, 15] [µM] | IC50 [8, 16] [µM] | IC50 [1] [µM] | IC50 [2] [µM] | IC50 [3] [µM] | IC50 [5] [µM] | IC50 (A375 melanoma cell line; A-375, 48 h) [µM] | IC50 [6] [µM] | IC50 [7] [µM] | IC50 [8] [µM] |
| --- | --- | --- | --- | --- | --- | --- | --- | --- | --- | --- | --- | --- | --- | --- | --- | --- | --- | --- | --- |
| COc1ccc2nc3cc(Cl)ccc3c(NCCCCN3CCN(C)CC3)c2c1 [Example 7, 6-Chloro-2-methoxy-N-(4-(4-methylpiperazin-1-yl)butyl)acridin-9-amine] | appearance of several electron-opaque structures | increase in both the size and number | 0.5 | 0.8 | 4 | nearly complete loss | 2.1 | 0.4 | 2.7 | 0.4 to 2.7 | 1.8 |  |  |  |  |  |  |  |  |
| CN1CCN(CCNc2c3c(nc4cc(Cl)ccc24)CCCC3)CC1 [Example 27, 6-Chloro-N-(2-(4-methylpiperazin-1-yl)ethyl)-1,2,3,4-tetrahydroacridin-9-amine] | appearance of several electron-opaque structures | increase in both the size and number |  |  |  | significant decrease |  |  |  |  |  | 22.2 | 25.3 | 21.6 | 14.9 | 24.3 | 26.6 | 15 to 42 | 42.3 |
| CCN(CC)CCCC(C)Nc1c2ccc(Cl)cc2nc2ccc(OC)cc12 (centres unmarked) [Quinacrine, quinacrine, reference compound] |  | increase in both the size and number | 2.9 | 2 | 1.9 | nearly complete loss | 3.9 | 2.3 | 2.2 | 1.9 to 3.9 | 2.2 |  |  |  |  |  |  |  |  |

Source: patent US20170000784A1, “Autophagy Inhibitors” (priority 2013, published 2017)
